Measured values reported in US20130029362A1, “MARKERS AND ASSAYS FOR DETECTION OF NEUROTOXICITY” (priority 2010, published 2013).

Legend:
[1] = tested on: Mouse, rat cortical or hippocampal primary neurons; test: In vitro drug candidate screening for neurotoxicity, ELISA of cell lysates; type: cell-based; conditions: primary neurons 21 DIV, glutamate 30 min, other agents 24 hours
Protocol: Mouse, rat cortical or hippocampal primary neurons are cultured for 21 DIV, and the dose dependent responses of drugs are investigated. Cultured cells are exposed to various concentrations of: Glutamate (0.01 to 1000 μM) in 10 μM glycine both in HBSS; B) 0.01 to 100 μM Kainate in culture media; C) H2O2 (0.001 to 1000 μM) in culture media; C) Zinc (0.01 to 1000 μM) in culture media; D) U0126 (0.001 to 100 μM) in culture media; and E) and equal volume of culture media as a control. Glutamate treatment is performed for 30 minutes after which the cells are washed and the HBSS is replaced with culture media and analyzed. The remaining candidates are treated for 24 hours and analyzed. The levels of intracellular UCH-L1 and SBDP 145 are analyzed following cell lysis and screening of the lysates by ELISA using anti-UCH-L1 and SBDP 145 specific antibodies. The levels of UCH-L1 are increased following exposure particularly to Glutamate and H2O2.

Male Sprague-Dawley rats [2] = test: Kainic acid neurotoxicity rat model, immunohistochemistry of brain sections; type: in vivo
Protocol: (§1) Male Sprague-Dawley rats (Harlan: Indianapolis, Ind.) with weight from 180 to 200 g are used. The rats are allowed free access to a normal laboratory diet and chlorinated potable water. All rats are acclimated for at least one week to the housing facilities and diet before being used in the study. The controls in the animal room are set to maintain a temperature of 20° C. to 24° C. and 30% to 70% relative humidity. Rats are maintained on a twelve-hour light/dark cycle.
(§2) Animals received single subcutaneous injections of Kaininc acid (Sigma, Chemical, St. Louis, Mo., USA) at dose 9 mg/kg and sacrificed at 24 h after injection. Separate control/treatment groups of animals are used. Brain tissues and CSF sample are collected at 6, 24, 48 and 72 h time points after injection.
(§3) At the appropriate time points, animals are anesthetized with 4% isoflurane in oxygen as a carrier gas for 4 minutes, followed by maintenance anesthesia of 2-3% isoflurane in the same carrier gas. The rats are placed in a stereotaxic instrument and about 100 μl of CSF from the cisterna magna of each animal is collected transcutaneously through 25 gauge needle attached to polyethylene tubing. CSF samples are frozen on dry ice immediately after collection. After CSF collection animals are removed from the stereotaxic instrument and anesthesia nose cone and the animal, still under anesthesia, is immediately sacrificed by decapitation. Cortex, hippocampus, cerebellum and striatum will be rapidly dissected out, rinsed in cold PBS and snap frozen in liquid nitrogen. To obtain brain tissue for IHC animals are euthanized with lethal dose of pentobarbital, transcardically perfused with 4% paraformaldehyde and whole brains are removed, processed and embedded in paraffin.
IHC is performed on paraffin-embedded 6 μm brain sections. Slides are deparaffinized, incubated for 10 min at 95° C. in Trilogy solution (Cell Marque, Hot Springs, Ak.) for antigen retrieval, blocked for endogenous peroxides and incubated with 1 Abs (GFAP, SBDP145, SBDP150, SBDP120 and Casp 3) overnight at 4° C. followed by treatments with secondary Abs (LSAB+, # K0679, Dako). The staining is visualized with 3,3′-diaminobenzidine (DAB) (Dako, Carpinteria, Calif.) for brown color development. Sections are counterstained with Hematoxylin (Dako, Carpinteria, Calif.). Negative controls are performed by treatment only with species-matched secondary antibodies.

rats = test: Kainic acid neurotoxicity rat model, biomarkers in blood plasma; type: in vivo; conditions: process of Example 5 with blood plasma in lieu of CSF; as a function of time
Text: The process of Example 5 is repeated with blood plasma as the subject sample source the rats in lieu of CSF.

Male Sprague-Dawley rats [3] = test: Kainic acid neurotoxicity rat model, Western blot of brain tissue for αII-spectrin and SBDPs; type: in vivo; conditions: 9 mg/kg s.c.; hippocampus and to a lesser extent cortex
Protocol: as §1, §2, §3
After SDS-gel electrophoresis in Tris-glycine buffer system and electrotransfer, blotting membranes are blocked for 1 hour at ambient temperature in 5% non-fat milk in Tris-buffered saline (TBS) and then in TBS containing 0.05% […] (TBST), then incubated in primary monoclonal anti-αII-spectrin antibodies (Biomol, Plymouth Meeting, Pa., USA) diluted ˜1:3000 (3.5 ul/10 ml) in PBS as recommended by the manufacturer at 4° C. overnight. […] Molecular weight of intact αll-spectrin protein and αll-spectrin breakdown products (SBDPs) are assessed by running alongside rainbow colored molecular weight standards (Amersham, Cat # RPN800V). Semi-quantitative evaluation of levels of αll-spectrin and of its breakdown products SBDP150 and SBDP145 and SBDP120 is performed using computer-assisted high-resolution flatbed scanner Epson XL3500 and densitometric image analysis with Image J software (NIH). […]

Male Sprague-Dawley rats [4] = type: in vivo, rat; conditions: 9 mg/kg s.c., compared with control group
Protocol: as §1, §2, §3
Serum and CSF sample concentrations of UCH-L1 are measured using a UCH-L1 sandwich enzyme-linked immunosorbent assay (ELISA) version lb modified from a protocol previously reported (Papa L. et al., 2010; Liu M. et al., 2009). Both mouse monoclonal antibody (capture antibody) and rabbit polyclonal antibody (detection antibody) are made in-house against recombinant human UCH-L1 full length protein and partial protein respectively). Both are affinity purified using target-protein-based affinity column. Their specificity to only target protein (UCH-L1) is confirmed by immunoblotting. Reaction wells are coated with capture antibody (5 μg/mL purified mouse monoclonal anti-human UCHL1) in 0.05 M sodium bicarbonate, pH 9.6 and incubated overnight at 4° C. […] Finally, the wells are developed with substrate solution: Ultra-TMB ELISA 100 μL/well (Pierce #34028) with incubation for 10 min, plate read at 450 nm with a 96-well spectrophotometer (Molecular Device Spectramax 190).
Serum and CSF sample concentrations of GFAP are measured using a GFAP sandwich enzyme-linked immunosorbent assay (ELISA) version 2a. […]

[5] = tested on: Female Sprague-Dawley rats; test: Acute in vivo drug candidate screening for neurotoxicity, biofluid biomarkers by sandwich ELISA or Western blot; conditions: rat, i.p., 30, 60, 90, 120 minutes following dosing, methamphetamine 40 mg/kg
Protocol: Anesthesia is performed with intraperitoneal injections of pentobarbital (50 mg/kg). The test substance can also be administered in a single dose by gavage using a stomach tube or a suitable intubation cannula. Animals are fasted prior to dosing. A total of four to eight animals of are used for each dose level investigated.
30, 60, 90, and 120 minutes following dosing, the rats are sacrificed by decapitation and blood is obtained by cardiac puncture. The levels of biofluid UCH-L1 and SBDP 150 and GFAP are analyzed by sandwich ELISA or Western blot by using UCH-L1 and SBDP 150 and GFAP specific antibodies.

[6] = 9 mg/kg s.c., hippocampus and cortex, vs control group

N[C@@H](CCC(=O)O)C(=O)O [Glutamate]
levels of intracellular UCH-L1 [1]: increased

OO [H2O2]
levels of intracellular UCH-L1 [1]: increased

C=C(C)[C@H]1CN[C@H](C(=O)O)[C@H]1CC(=O)O [KA, Kainic acid]
level of GFAP (IHC) (Male Sprague-Dawley rats [2]; [6]): increased level
level of SBDP120 (IHC) (Male Sprague-Dawley rats [2]; [6]): increased level
level of SBDP145 (IHC) (Male Sprague-Dawley rats [2]; [6]): increased level
level of SBDP150 (IHC) (Male Sprague-Dawley rats [2]; [6]): increased level
level of αII-spectrin breakdown products (histology images) (Male Sprague-Dawley rats [2]; hippocampus of KA treated rats, FIG. 5): increased level
level of activated Caspase-3 (histology images) (Male Sprague-Dawley rats [2]; hippocampus of KA treated rats, FIG. 7): increased level
Biomarker levels in blood plasma (UCHL 1, GFAP, NF-H) (rats): elevated
SBDP120 breakdown fragment produced by caspase-3 (Western blot) (Male Sprague-Dawley rats [3]): appearance
SBDP145 breakdown fragment produced by calpain (Western blot) (Male Sprague-Dawley rats [3]): appearance
SBDP150 breakdown fragment produced by calpain (Western blot) (Male Sprague-Dawley rats [3]): appearance
intact αII-spectrin level (Western blot) (Male Sprague-Dawley rats [3]): decrease
SBDP120 in CSF (ELISA) (Male Sprague-Dawley rats [4]): buildup
SBDP145 in CSF (ELISA) (Male Sprague-Dawley rats [4]): buildup
SBDP150 in CSF (ELISA) (Male Sprague-Dawley rats [4]): buildup
expression of GFAP in CSF (ELISA) (Male Sprague-Dawley rats [4]): increase
expression of UCHL 1 in CSF (ELISA) (Male Sprague-Dawley rats [4]): increase

CN[C@@H](C)Cc1ccccc1 [methamphetamine]
biofluid GFAP level relative to control animals [5]: increased
biofluid SBDP 150 level relative to control animals ([5]; cisplatin 10 mg/kg): increased
biofluid UCH-L1 level relative to control animals ([5]; cisplatin 10 mg/kg): increased
